Results on one molecule are retold here after publication PMC5510229, “BCAT1 controls metabolic reprogramming in activated human macrophages and is associated with inflammatory diseases” (Nature Communications, 2017).

For orientation: IC50 means the concentration needed to halve the response being measured. A lower IC50 goes with higher potency.

Data set [1] is described as follows: Dose-escalating toxicity study. Format: in vivo. The conditions noted are these: oral or intraperitoneal administration, doses up to 2 g kg^−1.
The subject of data set [2] is mouse bone marrow derived macrophages (BMDMs). Description: BMDM transwell migration assay. Format: cell-based, C57BL/6 mouse. To be noted: 10 hours, 10% FBS as chemo-attractant. An excerpt: Figure 6 ERG240 treatment results in reduced macrophage infiltration in CIA and crescentic glomerulonephritis. (a) Inhibition of murine BMDM migration in vitro in the presence of different concentrations of ERG240 by transwell migration assay (left panel, results are presented as the average of four experiments). The drug had no effect on cell viability (right panel, results are presented as the average of three experiments). (b) IHC analysis of CIA joints for expression of F4/80. Representative images show F4/80+ cells (indicated with an arrow). F4/80+ cell quantification is shown on the right panel. (c) Representative images showing glomerular ED1 (rat CD68)-positive cells in ERG240 treated animals following NTN. Percentage of glomerular ED1-positive cell quantification is shown on the right panel. Error bars are s.e.m. […]
The migration of BMDMs was assessed using a modified Bo yden chamber methodology. […]
To determine the effect of ERG240 on the total number of BMDMs, cell s were plated onto a 96-well plate at a density of 5,000 cells per well in complete media and allowed to adhere overnight. The cells were then exposed to various drug concentrations overnight and the cell population was quantified with CyQuant Cell Proliferation kit (Life Technologies) using triplicates, in two independent experiments. For hMDMs, cell viability was determined using the alamarBlue® Assa y (Invitrogen). […]

With `CC(=O)C(C)CCC(=O)O` (centres unmarked) [ERG240], in data set [1], the “adverse effects in dose-escalating toxicity study” value was “no major adverse effects”. In data set [2], this molecule came in with an IC50 of 5 to 10 mM.
